Read-outs that look alike come from different tables or passages of the source.
Experiment: Plasma pharmacokinetics of Compound 2 in PD participants (LC-MS/MS)
Format: in vivo, human
Details: plasma, plasma; for Tmax / AUC(0-t) / Cmax: human, po; for Tmax: read-out: tmax, median
Procedure: Participants were randomised to 3 doses of once-daily orally administered Compound 2 or placebo, in sequential cohort design, and were followed up to 36 weeks (52 weeks for Japanese participants). Participants in the low-dose group received 4 mg of Compound 2 as a once daily oral dose; participants in the mid-dose group received 8 mg of Compound 2 a once daily oral dose; and participants in the high-dose group received 15 mg of Compound 2 a once daily oral dose.
Analyses were based on all available data from participants who enrolled in part 1 of the trial and were randomised to receive either Compound 2 or placebo for up to 52 weeks for Japanese participants and 36 weeks for the ROW population. As part 1 was an exploratory, dose-escalation study, the sample size was not based on a statistical power calculation. Participants included in the primary safety analyses were those who were randomized and received at least one dose of Compound 2 or placebo. A data monitoring committee was responsible for overseeing the safety of patients and the risk/benefit ratio throughout the study. Duration of exposure to Compound 2 was different among the doses, as per the sequential cohort design, with the low- and high-dose cohorts commencing the study first and last, respectively. For pharmacokinetics, plasma parameters were calculated using noncompartmental methods, from plasma Compound 2 concentrations obtained after single dose administration. AUC0-24 and AUC0-48 were calculated using the trapezoidal method over a predefined time period of 24 hours or 48 hours, respectively. CLss/F was calculated using the following equation: CLss/F=Dose/AUCτ, where τ is the dosing interval. For pharmacodynamics, percent reduction of plasma or CSF GL-1 from baseline was calculated as (value−baseline)/baseline×100. Formal statistical testing was not conducted on MDS-UPDRS scale assessments.
The secondary outcome was to evaluate the pharmacokinetic profile of Compound 2 in plasma and cerebrospinal fluid (CSF) over a 4-week period. Plasma pharmacokinetic parameters included maximum plasma concentration (Cmax), time to Cmax (tmax), and area under the plasma concentration versus time curve from 0 to 24 h (AUC0-24). All parameters were assessed at Week 0 and Week 4 after treatment. In addition, AUC0-48 was assessed at Week 0, trough plasma concentration observed just before treatment administration during repeated dosing (Ctrough) was assessed at Weeks 2, 4, and 8 (FIG. 3), and total systemic clearance from plasma at steady state (CLSS/F) was assessed at Week 4. Plasma samples were collected at 1 hour pre-dose and 1, 2, 4, 8, 24, and 48 hours postdose. Compound 2 concentration in plasma was determined using a liquid chromatography tandem mass spectrometry method with a lower limit of quantification of 0.500 ng/mL. CSF samples were collected by lumbar puncture during the screening period (within 14 days prior to randomisation) or on the day of randomisation, and at Week 4, within 2 to 4 hours postdose. Compound 2 concentration in CSF was determined using a liquid chromatography tandem mass spectrometry method with a lower limit of quantification of 0.100 ng/mL.

[1] = Week 4, Japan, High 15 mg once daily oral, n = 2
[2] = Week 4, Japan, High 15 mg vs Low 4 mg
[3] = Week 4, Japan, Low 4 mg once daily oral, n = 1
[4] = Week 4, Japan, Mid 8 mg once daily oral, n = 3
[5] = Week 4, Japan, Mid 8 mg vs Low 4 mg
[6] = Week 4, ROW, High 15 mg once daily oral, n = 4
[7] = Week 4, ROW, High 15 mg vs Low 4 mg
[8] = Week 4, ROW, Low 4 mg once daily oral, n = 4
[9] = Week 4, ROW, Mid 8 mg once daily oral, n = 5
[10] = Week 4, ROW, Mid 8 mg vs Low 4 mg

Compound: CC(C)(NC(=O)O[C@@H]1CN2CCC1CC2)c1csc(-c2ccc(F)cc2)n1 [Compound 2, (S)-quinuclidin-3-yl (2-(2-(4-fluorophenyl)thiazol-4-yl)propan-2-yl)carbamate]
- Tmax (8 mg, Week 4, Japan, Mid 8 mg once daily oral, n = 3): 2.12 h
- AUC(0-t) (8 mg, Week 4, ROW, Mid 8 mg once daily oral, n = 5, read-out: AUC0-24, Geometric mean): 1.49 µg·h/mL
- AUC(0-t) (8 mg, Week 4, ROW, Mid 8 mg once daily oral, n = 5, read-out: AUC0-24, mean): 1.51 µg·h/mL
- Cmax (8 mg, Week 4, ROW, Mid 8 mg once daily oral, n = 5, read-out: Cmax, Geometric mean): 0.0758 µg/mL
- Cmax (8 mg, Week 4, ROW, Mid 8 mg once daily oral, n = 5, read-out: Cmax, mean): 0.0778 µg/mL
- Tmax (8 mg, Week 4, ROW, Mid 8 mg once daily oral, n = 5): 3.55 h
- AUC(0-t) (15 mg, Day 1, Japan, High 15 mg oral, n = 3, read-out: AUC0-24, Geometric mean): 0.977 µg·h/mL
- AUC(0-t) (15 mg, Day 1, Japan, High 15 mg oral, n = 3, read-out: AUC0-24, mean): 0.99 µg·h/mL
- AUC(0-t) (15 mg, Day 1, Japan, High 15 mg oral, n = 3, read-out: AUC0-48, Geometric mean): 1.57 µg·h/mL
- AUC(0-t) (15 mg, Day 1, Japan, High 15 mg oral, n = 3, read-out: AUC0-48, mean): 1.59 µg·h/mL
- Cmax (15 mg, Day 1, Japan, High 15 mg oral, n = 3, read-out: Cmax, mean): 0.0541 µg/mL
- Tmax (15 mg, Day 1, Japan, High 15 mg oral, n = 3): 4.1 h
- AUC(0-t) (15 mg, Day 1, ROW, High 15 mg oral, n = 4, read-out: AUC0-24, Geometric mean): 0.868 µg·h/mL
- AUC(0-t) (15 mg, Day 1, ROW, High 15 mg oral, n = 4, read-out: AUC0-24, mean): 0.873 µg·h/mL
- AUC(0-t) (15 mg, Day 1, ROW, High 15 mg oral, n = 4, read-out: AUC0-48, Geometric mean): 1.44 µg·h/mL
- AUC(0-t) (15 mg, Day 1, ROW, High 15 mg oral, n = 4, read-out: AUC0-48, mean): 1.45 µg·h/mL
- Cmax (15 mg, Day 1, ROW, High 15 mg oral, n = 4, read-out: Cmax, Geometric mean): 0.0471 µg/mL
- Cmax (15 mg, Day 1, ROW, High 15 mg oral, n = 4, read-out: Cmax, mean): 0.0474 µg/mL
- Tmax (15 mg, Day 1, ROW, High 15 mg oral, n = 4): 3.94 h
- AUC(0-t) (15 mg, Week 4, Japan, High 15 mg once daily oral, n = 2, read-out: AUC0-24, Geometric mean): 3.14 µg·h/mL
- AUC(0-t) (15 mg, Week 4, Japan, High 15 mg once daily oral, n = 2, read-out: AUC0-24, mean): 3.15 µg·h/mL
- Cmax (15 mg, Week 4, Japan, High 15 mg once daily oral, n = 3, read-out: Cmax, Geometric mean): 0.144 µg/mL
- Cmax (15 mg, Week 4, Japan, High 15 mg once daily oral, n = 3, read-out: Cmax, mean): 0.145 µg/mL
- Tmax (15 mg, Week 4, Japan, High 15 mg once daily oral, n = 3): 2.1 h
- AUC(0-t) (15 mg, Week 4, ROW, High 15 mg once daily oral, n = 4, read-out: AUC0-24, Geometric mean): 2.49 µg·h/mL
- AUC(0-t) (15 mg, Week 4, ROW, High 15 mg once daily oral, n = 4, read-out: AUC0-24, mean): 2.51 µg·h/mL
- Cmax (15 mg, Week 4, ROW, High 15 mg once daily oral, n = 4, read-out: Cmax, Geometric mean): 0.135 µg/mL
- Cmax (15 mg, Week 4, ROW, High 15 mg once daily oral, n = 4, read-out: Cmax, mean): 0.136 µg/mL
- Tmax (15 mg, Week 4, ROW, High 15 mg once daily oral, n = 4): 2.89 h
- Cmax, Geometric mean (Day 1, Japan, High 15 mg oral, n = 3): 0.0533 µg/mL
- CLss/F, Geometric mean [1]: 4770 mL/h
- CLss/F, mean [1]: 4780 mL/h
- AUC0-24, Fold increase vs low dose [2]: 2.78 fold
- CLss/F, Fold increase vs low dose [2]: 1.35 fold
- Cmax (geometric mean), Fold increase vs low-dose [2]: 2.56 fold
- CLss/F, Geometric mean [3]: 3540 mL/h
- CLss/F, mean [3]: 3540 mL/h
- CLss/F, Geometric mean [4]: 4930 mL/h
- CLss/F, mean [4]: 5010 mL/h
- Cmax, mean [4]: 0.0837 µg/mL
- AUC0-24, Fold increase vs low dose [5]: 1.43 fold
- CLss/F, Fold increase vs low dose [5]: 1.39 fold
- Cmax (geometric mean), Fold increase vs low-dose [5]: 1.47 fold
- CLss/F, Geometric mean [6]: 6030 mL/h
- CLss/F, mean [6]: 6100 mL/h
- AUC0-24, Fold increase vs low dose [7]: 3.26 fold
- CLss/F, Fold increase vs low dose [7]: 1.15 fold
- Cmax (geometric mean), Fold increase vs low-dose [7]: 3.29 fold
- CLss/F, Geometric mean [8]: 5240 mL/h
- CLss/F, mean [8]: 5270 mL/h
- CLss/F, Geometric mean [9]: 5370 mL/h
- CLss/F, mean [9]: 5450 mL/h
- AUC0-24, Fold increase vs low dose [10]: 1.95 fold
- CLss/F, Fold increase vs low dose [10]: 1.02 fold
- Cmax (geometric mean), Fold increase vs low-dose [10]: 1.85 fold
- Ctrough versus dose (Weeks 2, 4, and 8 (FIG. 3)): increased in a dose-proportional manner

Source: patent US20230372313A1, “METHODS FOR REDUCING GLYCOSPHINGOLIPID CONCENTRATION IN BRAIN TISSUE AND METHODS OF TREATMENT OF NEURODEGENERATIVE DISEASES INVOLVING THE SAME” (GENZYME CORPORATION, priority 2020, published 2023)
